Our source for the GI50 and TGI values is PubChem BioAssay (NCI).

Several values for one entry are separate records, joined by “and”; a condition that tells them apart may be missing. Identical values can stand only once.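 Growth conditions: 96-well plates. Treatment: test compound, 48 hours, 5 concentrations. Analysis: linear interpolation between bracketing concentrations; unreached endpoints set to highest concentration. GI50: concentration for 50% inhibition of growth. TGI is the concentration that stops growth completely.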

Some test systems named below: NCI-H460 lung; OVCAR-8 ovarian; RPMI-8226 leukemia; SN12C renal; MALME-3M melanoma; UO-31 renal; COLO 205 colon; CAKI-1 renal; TK-10 renal; EKVX NSCLC.
Common to all, as to experiment: NCI anticancer screen, dose series, 48 h

In the case of `O=[N+]([O-])C1C(c2ccccc2)C12c1ccccc1-c1ccccc12` (stereo unspecified), the GI50 in the assay with NCI-H460 lung is 0.589 µM; with OVCAR-8 ovarian, 0.645 µM; in the assay with RPMI-8226 leukemia it was 0.322 µM; in the assay with SN12C renal it was 1.67 µM; with MALME-3M melanoma, 15 µM; in the assay on UO-31 renal, 2.06 µM. For the same compound, the GI50 in the assay on COLO 205 colon is 1.85 µM; in the assay on CAKI-1 renal, 1.03 µM; with TK-10 renal, 2 µM; in the assay on EKVX NSCLC, 3.22 µM. For the same compound, the TGI in the assay on NCI-H460 lung was 10.7 µM; in the assay on OVCAR-8 ovarian, greater than 24.3 µM; in the assay with RPMI-8226 leukemia, 1.51 µM; in the assay on SN12C renal it was 26 µM; in the assay with MALME-3M melanoma, 37.8 µM; with UO-31 renal it was 18.8 µM. Also, the TGI is 10.9 µM in the assay on COLO 205 colon, greater than 65.7 µM with CAKI-1 renal, 16.6 µM in the assay on TK-10 renal and greater than 100 µM in the assay on EKVX NSCLC.

With `Nc1nc(SCc2ccccn2)c2ncn(C3CCCC3)c2n1`, the TGI in the assay with NCI-H460 lung was greater than 100 µM; with OVCAR-8 ovarian, greater than 100 µM; in the assay on RPMI-8226 leukemia, greater than 100 µM; in the assay with SN12C renal it was greater than 100 µM; with MALME-3M melanoma, greater than 100 µM; in the assay with UO-31 renal, 32.7 µM. In addition, the TGI with COLO 205 colon, in the assay on CAKI-1 renal, in the assay with TK-10 renal and in the assay with EKVX NSCLC was greater than 100 µM throughout.

With `COC(=O)C1CC2(CC3=C1CCCC3)OCCO2` (stereo unspecified), the TGI with NCI-H460 lung, in the assay with OVCAR-8 ovarian, in the assay with RPMI-8226 leukemia, with SN12C renal, in the assay with MALME-3M melanoma and in the assay on UO-31 renal was greater than 100 µM throughout. Also, the TGI in the assay on COLO 205 colon, with CAKI-1 renal, with TK-10 renal and in the assay with EKVX NSCLC was greater than 100 µM throughout.

In the case of `C=C1C(=O)O[C@H]2[C@H]1CC/C(Cn1cc(CNC(=O)Cc3cn(C(=O)c4ccc(Cl)cc4)c4ccc(OC)cc34)nn1)=C\CC[C@@]1(C)O[C@@H]21`, the GI50 is 3.86 µM in the assay with NCI-H460 lung; 2.62 µM in the assay on OVCAR-8 ovarian; 1.59 µM in the assay with RPMI-8226 leukemia; 1.62 µM in the assay on SN12C renal; 1.62 µM in the assay on MALME-3M melanoma; 1.53 µM with UO-31 renal. In addition, the GI50 with COLO 205 colon is 2.04 µM; with CAKI-1 renal, 1.49 µM; in the assay on TK-10 renal it was 1.77 µM; in the assay on EKVX NSCLC, 2.29 µM. In addition, the TGI in the assay on NCI-H460 lung was determined as 13.2 µM; in the assay on OVCAR-8 ovarian it was 8.3 µM; with RPMI-8226 leukemia, 5.21 µM; in the assay with SN12C renal, 3.21 µM; in the assay with MALME-3M melanoma, 3.18 µM; in the assay on UO-31 renal, 3.05 µM. Besides, the TGI in the assay with COLO 205 colon amounted to 4.22 µM; in the assay on CAKI-1 renal, 2.89 µM; in the assay with TK-10 renal, 3.24 µM; in the assay with EKVX NSCLC, 7.33 µM.

As to `O=C(NNc1nc(Cl)nc(N2CCN(C(c3ccccc3)c3ccccc3)CC2)n1)c1ccccc1`, the GI50 is 1.93 µM in the assay on NCI-H460 lung; 1.99 µM in the assay with OVCAR-8 ovarian; 3.79 µM in the assay on RPMI-8226 leukemia; 1.72 µM with SN12C renal; 1.69 µM in the assay on MALME-3M melanoma; 2.54 µM in the assay with UO-31 renal. Further, the GI50 is 2.04 µM with COLO 205 colon, 1.68 µM in the assay with CAKI-1 renal, greater than 100 µM in the assay with TK-10 renal and 1.99 µM in the assay with EKVX NSCLC. The TGI in the assay with NCI-H460 lung was 3.77 µM; with OVCAR-8 ovarian, 4.67 µM; in the assay with RPMI-8226 leukemia it was greater than 100 µM; with SN12C renal, 3.17 µM; with MALME-3M melanoma, 3.34 µM; with UO-31 renal, 17.2 µM. The TGI was 4.64 µM in the assay on COLO 205 colon, 3.1 µM with CAKI-1 renal, greater than 100 µM in the assay with TK-10 renal and 4.29 µM with EKVX NSCLC.

Turning to `CCc1cccc(C(C)C)c1NC(=O)C(=O)C(Cc1nc2ccccc2[nH]c1=O)C(=O)OC` (stereo unspecified), the TGI with NCI-H460 lung, in the assay on OVCAR-8 ovarian, in the assay on RPMI-8226 leukemia, in the assay on SN12C renal, with MALME-3M melanoma and in the assay on UO-31 renal was greater than 100 µM in each case. Besides, the TGI in the assay on COLO 205 colon, in the assay on CAKI-1 renal, in the assay with TK-10 renal and in the assay with EKVX NSCLC was greater than 100 µM throughout.

As for `CC1OC(OCC2OC(Oc3c(-c4ccc(O)cc4)oc4cc(O)cc(O)c4c3=O)C(OC3OCC(O)(CO)C3O)C(O)C2O)C(O)C(O)C1O` (stereo unspecified), the TGI in the assay on NCI-H460 lung, in the assay with OVCAR-8 ovarian, with RPMI-8226 leukemia, with SN12C renal, in the assay with MALME-3M melanoma and with UO-31 renal was greater than 100 µM throughout. The TGI in the assay on COLO 205 colon, in the assay on CAKI-1 renal, with TK-10 renal and in the assay on EKVX NSCLC was greater than 100 µM each time.

`COc1ccc(C(=O)/C(Br)=C/C(=O)O)cc1`: the GI50 in the assay with NCI-H460 lung was 14.4 µM; in the assay with RPMI-8226 leukemia, 7.57 µM; in the assay on SN12C renal, 53.7 µM; in the assay with MALME-3M melanoma it was 18.8 µM; with UO-31 renal, 20.3 µM; in the assay on COLO 205 colon, 15.1 µM. Further, the GI50 with TK-10 renal is 113 µM; in the assay on EKVX NSCLC, 28 µM. Moreover, the TGI is 300 µM and 72 µM with NCI-H460 lung; 326 µM in the assay with OVCAR-8 ovarian; 110 µM and 78.6 µM in the assay on RPMI-8226 leukemia; 228 µM and 183 µM in the assay on SN12C renal; 47.3 µM and 45.2 µM with MALME-3M melanoma; 77.7 µM and 103 µM with UO-31 renal. The TGI was 34.4 µM and 54.2 µM in the assay on COLO 205 colon; 148 µM and 154 µM in the assay with CAKI-1 renal; 167 µM and 285 µM in the assay with TK-10 renal; 181 µM and 115 µM in the assay with EKVX NSCLC.

As to `COc1cc2c3c(n(C)c(=O)c2cc1OC)-c1cc2c(cc1/C3=C\CCCCCN)OCO2`, the GI50 with NCI-H460 lung was 0.13 µM; in the assay on RPMI-8226 leukemia it was 0.1 µM; in the assay with SN12C renal, 0.271 µM; with MALME-3M melanoma, 8.38 µM; in the assay on UO-31 renal, 2.08 µM; in the assay with COLO 205 colon it was 5.8 µM. For the same compound, the results for the GI50 with CAKI-1 renal and in the assay with EKVX NSCLC were 1.63 µM and 16.4 µM, respectively. Further, the TGI with NCI-H460 lung is 21.7 µM; with OVCAR-8 ovarian it was 3.33 µM; in the assay with RPMI-8226 leukemia, 1.38 µM; in the assay on SN12C renal it was 18.4 µM; in the assay with MALME-3M melanoma, 37.8 µM; in the assay on UO-31 renal, greater than 100 µM. For the same compound, the TGI with COLO 205 colon was greater than 100 µM; in the assay with CAKI-1 renal, 54.2 µM; in the assay on TK-10 renal, 22.5 µM; with EKVX NSCLC, 52.2 µM.
